Where “and” joins values, the source holds several entries; their conditions need not be identical. Equal entries are not always repeated.
The compounds below were run against T1, Mcl-1 protein (Homo sapiens, UniProt Q07820) (assay: SPR-based solution competitive binding assay, immobilized biotin-labelled Bim BH3 peptide). Conditions: Mcl-1 20 nM; competition with immobilized Bim BH3 peptide.
T1 construct: human Mcl-1 (residues 171–323); His tag (pHis-TEV vector) (N, cleaved yes); made in house; host or cells: E. coli BL21 (DE3)
T1 sequence (Q07820 171-323): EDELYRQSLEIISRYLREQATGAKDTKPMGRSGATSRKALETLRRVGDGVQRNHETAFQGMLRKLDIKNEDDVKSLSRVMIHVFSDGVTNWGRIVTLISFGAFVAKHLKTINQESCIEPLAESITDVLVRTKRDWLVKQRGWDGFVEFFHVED
Method: The solution competitive SPR-based assay was performed on Biacore 2000 in a similar way as was already reported. Briefly, N terminal biotin-labelled Bim BH3 peptide (141–166 amino acids) was immobilized on streptavidin (SA) chip giving a density of 800 RU (Response Units). The pre-incubated Mcl-1 protein (20 nM) with tested small-molecule inhibitors for at least 30 min was injected over the surfaces of the chip using assay buffer HBS-P (GE, #BR100368). Response units were measured at 15 s in the dissociation phase, and IC50 values were determined by nonlinear least-squares analysis using GraphPad Prism 6.0 software.
Work on `O=C(CSc1nnc(-c2cccs2)c(-c2cccs2)n1)Nc1ccccc1` [Compound 25] yielded an IC50 greater than 100 µM. `O=C(CSc1nnc(-c2ccccc2)c(-c2ccccc2)n1)Nc1ccccc1` [Compound 26] gave an IC50 greater than 100 µM. `O=C(CSc1nnc(-c2ccccn2)c(-c2ccccn2)n1)Nc1ccccc1` [Compound 27] showed an IC50 greater than 100 µM. Compound `CCc1ccc(NC(=O)CSc2nnc(-c3ccco3)c(-c3ccco3)n2)cc1` [Compound 28] has an IC50 of 14.3 ± 2 µM. Compound `CC(C)c1ccc(NC(=O)CSc2nnc(-c3ccco3)c(-c3ccco3)n2)cc1` [Compound 29] has an IC50 of 11.6 ± 1.1 µM. Compound `COc1ccc(NC(=O)CSc2nnc(-c3ccco3)c(-c3ccco3)n2)cc1` [Compound 30] has an IC50 of 47.4 ± 3.9 µM. In the case of `CN(C)c1ccc(NC(=O)CSc2nnc(-c3ccco3)c(-c3ccco3)n2)cc1` [Compound 32], the IC50 is reported as greater than 100 µM. `Nc1ccc(NC(=O)CSc2nnc(-c3ccco3)c(-c3ccco3)n2)cc1` [Compound 33] showed an IC50 greater than 100 µM. `O=C(CSc1nnc(-c2ccco2)c(-c2ccco2)n1)Nc1ccc(F)cc1` [Compound 34] was tested, and the IC50 was 12.5 ± 1.7 µM. `O=C(CSc1nnc(-c2ccco2)c(-c2ccco2)n1)Nc1ccc(-c2ccccc2)cc1` [Compound 35] was tested, and the IC50 was 5.1 ± 2.3 µM.

These compounds were tested against T1, Mcl-1 protein (assay: FP-based competitive binding assay with fluorescent labelled Bid BH3 peptide). Conditions: calculated from FP IC50.
Method: FP-based binding assays were developed and optimized to determine the binding affinities of inhibitors to the recombinant Mcl-1, Bcl-2, Bcl-xL, and Bfl-1, proteins. […] The fluorescent Bid probe was fixed at 2 nM for all assays, except for Bfl-1, where 1 nM was used. 5 μL of the tested compound in DMSO and 120 μL of protein/probe complex in the assay buffer were added to assay plates (Corning #3792), incubated at room temperature for 3 h, and the polarization values (mP) were measured at an excitation wavelength of 485 nm and an emission wavelength of 530 nm using the plate reader Synergy H1 Hybrid, BioTek. IC50 values were determined by nonlinear regression fitting of the competition curves (GraphPad Prism 6.0 Software). The Ki values were calculated as described previously.
1. List of compounds purchased from vendors
Compound s 5, 6, 7, 8 and S3, S4, S5, S6 S7, S8, S9, S10, S17 were purchased from […]
Compound s 9, 10, 11 and S11, S12, S13 were purchased from I nterbioscreen […]
His-tagged proteins containing human Mcl-1 (residues 171–323), the isoform 2 construct of the human Bcl-2 [Bcl2-2 construct for protein production starts with the Bcl2 sequence of 1-34 a a, followed by the Bcl-xL seq uence of 35-50 aa, and ends with the Bcl-2 sequenc e of 92-202aa.], Bcl-xL (Human Bcl-xL protein, which has an internal deletion for the 45 -85 amino acid residues and a C -terminal truncation for the amino acid residues 212-233), and Bf l-1 (residues 1-151), were expres sed from the pHis -TEV vector (a modified pET vector) in E. coli BL21 (DE3) cells. Cells were grown at 37 °C in 2×YT containing antibiotics to an OD600 density of 1.5, 1 and 0.8 for Mcl-1, Bcl-xL and Bcl-2 respectively. Protein expression wa s induced by 0 .4 mM IPTG at 20 °C overnight for all proteins except for Bf l-1 which was e xpressed at 3 7 °C for four hours . Cells were lysed in 20 mM HEPES pH 7.5, 200 mM NaCl, 0.1% βME with Leupeptin/Aprotinin (Mcl-1), 25mM Tris pH 8.5, 200mM NaCl (Bcl-2), 50mM Tris pH 7.5, 200 mM NaCl (Bcl-xL) and 50 mM Tris pH 8, 500 mM NaCl, 0. 1% βME with Leupeptin/Aprotinin (Bf l-1). All […]
proteins were purified from the soluble fraction using Ni-NTA resin (QIAGEN), following the manufacturer’s instructions. For purification of TEV-cleaved protein, the amino-terminal His tag was cleaved by incubation with TEV protease and the protein was further purified by anion exchange (Source Q) and gel filtration chromatography (Superdex 75, Amersham Biosciences) in 20mM HEPES pH 7.0, 50 mM NaCl (Mcl-1), […]
NaCl, 0.1% βME (Bcl-xL) and 25 mM Tris pH 7.5, 150 mM NaCl, 25% Glycerol, 0.1% βME ( Bf l-1). His-tagged Mcl-1 protein was used for TR-FRET assay and HSQC-NMR.
His-TEV cleaved Mcl-1, Bcl-2, Bcl-xL, and Bf l-1 were used in fluorescent polarization and surface plasmon resonance binding assays.
Mutant Mcl-1 protein wa s prepared by the QuikChange site -directed mutagenesi s method (Stratagene) , where Arg263 was mutated to Ala. The R263A expression pla smid was transformed into Rosetta2 DE3 cells and purified by the same method as the wildtype protein. Cultures were grown to an OD 600 of 1. 5 at 37 °C in Terrific Broth, induced with 0. 4 mM IPTG, and express ed overnight at 20 °C. The follow-up purification was performed the same way as was for Mcl-1 wild-type recombinant
Compound `O=C(CSc1nnc(-c2cccs2)c(-c2cccs2)n1)Nc1ccccc1` [Compound 25] has a Ki greater than 25000 nM. Work on `O=C(CSc1nnc(-c2ccccc2)c(-c2ccccc2)n1)Nc1ccccc1` [Compound 26] yielded a Ki greater than 5000 nM. `O=C(CSc1nnc(-c2ccccn2)c(-c2ccccn2)n1)Nc1ccccc1` [Compound 27] gave a Ki greater than 12500 nM. `CCc1ccc(NC(=O)CSc2nnc(-c3ccco3)c(-c3ccco3)n2)cc1` [Compound 28] was tested, and the Ki was 1200 ± 100 nM. In the case of `CC(C)c1ccc(NC(=O)CSc2nnc(-c3ccco3)c(-c3ccco3)n2)cc1` [Compound 29], the Ki is reported as 500 ± 200 nM. `COc1ccc(NC(=O)CSc2nnc(-c3ccco3)c(-c3ccco3)n2)cc1` [Compound 30] showed a Ki of 7800 ± 1800 nM. In the case of `CN(C)c1ccc(NC(=O)CSc2nnc(-c3ccco3)c(-c3ccco3)n2)cc1` [Compound 32], the Ki is reported as greater than 25000 nM. `Nc1ccc(NC(=O)CSc2nnc(-c3ccco3)c(-c3ccco3)n2)cc1` [Compound 33] gave a Ki greater than 25000 nM. `O=C(CSc1nnc(-c2ccco2)c(-c2ccco2)n1)Nc1ccc(F)cc1` [Compound 34] was tested, and the Ki was 1900 ± 200 nM. `O=C(CSc1nnc(-c2ccco2)c(-c2ccco2)n1)Nc1ccc(-c2ccccc2)cc1` [Compound 35] was tested, and the Ki was 600 ± 100 nM.

Same assay, conditions: competition with fluorescent Bid probe 2 nM, 20 nM Mcl-1 for purchased compounds, 10 nM for synthesized library
`O=C(CSc1nnc(-c2cccs2)c(-c2cccs2)n1)Nc1ccccc1` [Compound 25] was tested, and the IC50 was greater than 100 µM. `O=C(CSc1nnc(-c2ccccc2)c(-c2ccccc2)n1)Nc1ccccc1` [Compound 26] showed an IC50 greater than 20 µM. In the case of `O=C(CSc1nnc(-c2ccccn2)c(-c2ccccn2)n1)Nc1ccccc1` [Compound 27], the IC50 is reported as greater than 50 µM. In the case of `CCc1ccc(NC(=O)CSc2nnc(-c3ccco3)c(-c3ccco3)n2)cc1` [Compound 28], the IC50 is reported as 5 ± 0.3 µM. `CC(C)c1ccc(NC(=O)CSc2nnc(-c3ccco3)c(-c3ccco3)n2)cc1` [Compound 29] gave an IC50 of 2.3 ± 0.7 µM. For `COc1ccc(NC(=O)CSc2nnc(-c3ccco3)c(-c3ccco3)n2)cc1` [Compound 30], the IC50 was 33 µM and 33.1 µM. With `CN(C)c1ccc(NC(=O)CSc2nnc(-c3ccco3)c(-c3ccco3)n2)cc1` [Compound 32] the IC50 was greater than 100 µM. With `Nc1ccc(NC(=O)CSc2nnc(-c3ccco3)c(-c3ccco3)n2)cc1` [Compound 33] the IC50 was greater than 100 µM. In the case of `O=C(CSc1nnc(-c2ccco2)c(-c2ccco2)n1)Nc1ccc(F)cc1` [Compound 34], the IC50 is reported as 8.1 ± 0.8 µM. `O=C(CSc1nnc(-c2ccco2)c(-c2ccco2)n1)Nc1ccc(-c2ccccc2)cc1` [Compound 35] showed an IC50 of 2.5 ± 0.1 µM.

The compounds below were run on Eµ-myc lymphoma cells overexpressing Bcl-2 (assay: Eµ-myc lymphoma cell viability, flow cytometry). Conditions: increasing concentrations.
Format: cell-based, mice
Method: (§1) MEF cells, including wild-type, Bax/Bak double knockout, Bax−/− single knockout, and Bak−/− single knockout were tested and characterized (Supplementary Fig. S3). The cells were cultured in DMEM (Life Technologies), supplemented with 10% fetal bovine serum (FBS) (Thermo Scientific HyClone) and 1% Penicillin/streptomycin solution (Life Technologies). The retrovirally transduced lymphoma cells isolated from Eμ-myc transgenic mice were provided by Ricky W. Johnstone at the University of Melbourne, Melbourne, Australia and cultured as previously described[37],[65].
(§2) The Mcl-1, Bcl-2, and Bcl-xL retroviral transduced lymphoma Eμ-myc cells were seeded in 12-well plates at 0.5 × 10^6 cells/well. […] The cells were harvested and stained with violet LIVE/DEAD Fixable Dead Cell Stain Kit (Invitrogen) according to manufacturer’s protocol. The percentage of fluorescent positive cells was determined by flow cytometry and calculated using WinList 3.0.
In the case of `CC(C)c1ccc(NC(=O)CSc2nnc(-c3ccco3)c(-c3ccco3)n2)cc1` [Compound 29], the “effect on Eµ-myc cells overexpressing Bcl-2” value is reported as “selectivity”.

These compounds were tested on Eµ-myc lymphoma cells overexpressing Mcl-1 (assay: Eµ-myc lymphoma cell viability, flow cytometry). Conditions: increasing concentrations, 15 h.
Format: cell-based, mice
Method: as §1, §2
`CC(C)c1ccc(NC(=O)CSc2nnc(-c3ccco3)c(-c3ccco3)n2)cc1` [Compound 29] was tested, and the “killing of Eµ-myc cells overexpressing Mcl-1” value was “killing”.

These compounds were tested against T1, Mcl-1 protein (assay: TR-FRET binding assay with Bid-Dy647 peptide). Conditions: 10 nM Mcl-1, 10 nM Bid-Dy647.
Method: TR-FRET was performed using black 384-well plates in an Envision Multilabel plate reader (Perkin Elmer Life Sciences). To each well, a mixture of 10 nM Bid-Dy647 peptide (79–99), 10 nM Mcl-1 protein, and Europium-anti-His antibody were added to a final volume of 25 μl in the assay buffer (20 mM potassium phosphate, pH 7.5; 50 mM NaCl, 1 mM EDTA and 0.05% Pluronic F68). The TR-FRET signals were measured with an Envision Multilabel plate reader after 2 h of incubation. (Ex 340 nm, Em615 nm and Em665 nm) and expressed as FRET signal ratio (F665 nm/[…] * 104)
`O=C(CSc1nnc(-c2cccs2)c(-c2cccs2)n1)Nc1ccccc1` [Compound 25] gave an IC50 greater than 100 µM. `CCc1ccc(NC(=O)CSc2nnc(-c3ccco3)c(-c3ccco3)n2)cc1` [Compound 28] showed an IC50 of 5.5 ± 1.8 µM. Compound `CN(C)c1ccc(NC(=O)CSc2nnc(-c3ccco3)c(-c3ccco3)n2)cc1` [Compound 32] has an IC50 greater than 80 µM. With `O=C(CSc1nnc(-c2ccco2)c(-c2ccco2)n1)Nc1ccc(F)cc1` [Compound 34] the IC50 was 11.6 ± 4 µM. With `O=C(CSc1nnc(-c2ccco2)c(-c2ccco2)n1)Nc1ccc(-c2ccccc2)cc1` [Compound 35] the IC50 was 5 ± 2.7 µM.

Reference: paper PMC6033896, “Discovery of Mcl-1 inhibitors from integrated high throughput and virtual screening” (Scientific Reports, 2018)
